One experiment relates to Proteus C 889. Nature of the experiment: MIC of ampicillin alone or with compound of the Example, Proteus C 889. Type of experiment: cell-based.
A further experiment concerns Kleb. E 70. Nature of the experiment: MIC of ampicillin alone or with compound of the Example, Kleb. E 70. Type of experiment: cell-based.
The mark [1] stands for this setting: table 2 (no quantity or unit in head), Ampicillin alone.

Bounds are passed on as bounds.

As to `CC1(C)S[C@@H]2[C@H](NC(=O)[C@H](N)c3ccccc3)C(=O)N2[C@H]1C(=O)O` [Ampicillin], the MIC in the experiment on Proteus C 889 (table 1, Ampicillin alone) was more than 500 µg/mL; with Proteus C 889 (setting [1]), more than 500 µg/mL; in the experiment on Kleb. E 70 (table 1, Ampicillin alone), more than 500 µg/mL; in the experiment with Kleb. E 70 (setting [1]), 22 500.

By MIC is commonly meant the least concentration at which growth counts as inhibited.
